Biological target: T1, bovine serum albumin (BSA) (Bos taurus, UniProt P02769)
T1 construct: gene ALB
Test: tryptophan fluorescence quenching (Stern-Volmer, double-log plot), […] K; Kb given
Assay type: binding

T1 sequence (P02769 25-607): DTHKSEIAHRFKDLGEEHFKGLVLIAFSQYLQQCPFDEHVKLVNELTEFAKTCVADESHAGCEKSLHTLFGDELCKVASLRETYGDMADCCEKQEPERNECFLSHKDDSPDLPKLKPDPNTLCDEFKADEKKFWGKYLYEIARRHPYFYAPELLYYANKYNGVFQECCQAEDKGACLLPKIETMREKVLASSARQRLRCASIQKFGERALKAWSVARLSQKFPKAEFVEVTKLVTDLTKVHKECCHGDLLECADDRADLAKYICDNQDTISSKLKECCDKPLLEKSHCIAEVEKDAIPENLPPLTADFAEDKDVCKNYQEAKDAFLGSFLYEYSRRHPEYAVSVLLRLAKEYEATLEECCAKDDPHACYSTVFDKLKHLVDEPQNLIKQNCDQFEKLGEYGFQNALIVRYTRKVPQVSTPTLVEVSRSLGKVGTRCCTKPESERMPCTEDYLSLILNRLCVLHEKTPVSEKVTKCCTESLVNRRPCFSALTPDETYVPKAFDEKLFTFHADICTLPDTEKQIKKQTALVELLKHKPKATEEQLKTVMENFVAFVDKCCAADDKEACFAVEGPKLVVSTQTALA

Substance	K b / (×10^5)
cis-[Ru(quin)(dppm)2]PF6 [compound 1]	4.77 (×10^5) (Kb)
cis-[Ru(kynu)(dppm)2]PF6 [compound 2]	3.25 (×10^5) (Kb)
